Source: US8399399B2, “3- and 4-methyl dodecenal and their use in fragrance and flavour compositions” (Givaudan SA, priority 2005, dated 2013)

Assay: Determination of GC-odour threshold concentration (gas chromatograph with sniff port, panel of trained evaluators)
Conditions: for odour threshold concentration, geometric mean: GC sniff port, absolute amount of compound delivered at the sniff port, group of 5 panelists, identical conditions; for odour threshold of the (Z)-isomer compared to its corresponding (E)-isomer (times higher): pure (Z)-isomer versus pure (E)-isomer
Method: The odour threshold concentration is defined as the lowest concentration of the vapour of an odourant material in the air which can be detected by smell and can be measured by standard methods known in the art.
According to standard procedures known to the person skilled in the art, threshold concentrations for volatile perfumery compounds are determined on a gas chromatograph equipped with a sniff port by a panel of trained evaluators. The lowest concentration smelled by each panellist is recorded as the individual threshold concentration expressed in ng (absolute amount of compound delivered at the sniff port).
Under identical conditions the odour threshold concentration for (E)-2-methyl-4-dodecenal (prior art), (E)-3-methyl-4-dodecenal and (E)-4-methyl-4-dodecenal was measured and compared by a group of 5 panelists.

Row | Structure (SMILES) | odour threshold concentration, geometric mean [ng] | odour threshold of the (Z)-isomer compared to its corresponding (E)-isomer (times higher) [times]
1 | CCCCCCC/C=C/CC(C)C=O (centres unmarked) [(E)-2-methyl-4-dodecenal, reference compound] | 3.2 | –
2 | CCCCCCC/C=C/C(C)CC=O (centres unmarked) [(E)-3-methyl-4-dodecenal] | 1.0 | –
3 | CCCCCCC/C=C(\C)CCC=O [(E)-4-methyl-4-dodecenal, (E)-4-Methyl-4-dodecenal] | 0.05 | –
4 | CCCCCCC/C=C\C(C)CC=O (centres unmarked) [(Z)-3-methyl-4-dodecenal] | – | 5
5 | CCCCCCC/C=C(/C)CCC=O [(Z)-4-methyl-4-dodecenal, (Z)-4-Methyl-4-dodecenal] | – | 20
